Data reported in patent US20240018120A1, “MAGL INHIBITORS” (H. LUNDBECK A/S, priority 2020, published 2024).

target: T1, MAGL (Homo sapiens, UniProt Q99685); test: In vitro competitive activity-based protein profiling, PC3 human cell membrane proteomes; format: biochemical; set-up: endogenous in cells; host or cells: PC3 human cells (membrane proteome); settings: human PC3 membrane proteome
T1 sequence (Q99685 1-303): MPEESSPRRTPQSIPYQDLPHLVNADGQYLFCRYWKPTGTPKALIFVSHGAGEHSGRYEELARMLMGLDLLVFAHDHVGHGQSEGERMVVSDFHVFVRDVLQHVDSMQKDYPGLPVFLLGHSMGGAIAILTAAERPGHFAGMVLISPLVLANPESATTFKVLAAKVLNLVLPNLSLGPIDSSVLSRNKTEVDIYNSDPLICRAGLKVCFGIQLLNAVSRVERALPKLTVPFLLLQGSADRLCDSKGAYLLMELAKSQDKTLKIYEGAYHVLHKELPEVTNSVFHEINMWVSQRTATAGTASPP
Protocol: PC3 human cell membrane proteomes (50 μL, 2.0 mg/mL total protein concentration) were preincubated with varying concentrations of inhibitors at 37° C. After 30 min, the ABPP probe JW912-Bodipy (1.0 μL, 50 μM in DMSO) was added and the mixture was incubated for 30 min at room temperature. Reactions were quenched with SDS loading buffer (15 μL-4×) and run on SDS-PAGE. Following gel imaging, serine hydrolase activity was determined by measuring fluorescent intensity of gel bands corresponding to MAGL using ImageJ 1.43u software. Intensities were converted to percent enzyme activity by normalizing to DMSO controls. IC50 values were determined by fitting percent enzyme activities to a non-linear regression, 4-parameter, sigmoidal dose response function in Prism GraphPad.

| IC50 [µM] | Compound |
| --- | --- |
| 0.27 | Cc1ccc(NC(=O)C2CC23CCN(C(=O)OC(C(F)(F)F)C(F)(F)F)CC3)cc1 (single isomer, unassigned) [Example 145, 1,1,1,3,3,3-hexafluoropropan-2-yl (R or S)-1-(p-tolylcarbamoyl)-6-azaspiro[2.5]octane-6-carboxylate] |
| 0.043 | O=C(NC1CC2(COC2)C1)C1CC12CCN(C(=O)OC(C(F)(F)F)C(F)(F)F)CC2 (single isomer, unassigned) [Example 159, 1,1,1,3,3,3-hexafluoropropan-2-yl (R or S)-1-((2-oxaspiro[3.3]heptan-6-yl)carbamoyl)-6-azaspiro[2.5]octane-6-carboxylate] |
| 0.0027 | O=C(Nc1ccon1)C1CC12CCN(C(=O)OC(C(F)(F)F)C(F)(F)F)CC2 (single isomer, unassigned) [Example 178, 1,1,1,3,3,3-hexafluoropropan-2-yl (R or S)-1-(isoxazol-3-ylcarbamoyl)-6-azaspiro[2.5]octane-6-carboxylate] |
| 0.016 | O=C(NC(=O)C1CC12CCN(C(=O)OC(C(F)(F)F)C(F)(F)F)CC2)C1CCOCC1 (single isomer, unassigned) [Example 26, 1,1,1,3,3,3-Hexafluoropropan-2-yl (R or S)-1-((tetrahydro-2H-pyran-4-carbonyl)carbamoyl)-6-azaspiro[2.5]octane-6-carboxylate] |
| 0.45 | O=C(NCc1cccnn1)C1CC12CCN(C(=O)OC(C(F)(F)F)C(F)(F)F)CC2 (single isomer, unassigned) [Example 156, 1,1,1,3,3,3-hexafluoropropan-2-yl (R or S)-1-((pyridazin-3-ylmethyl)carbamoyl)-6-azaspiro[2.5]octane-6-carboxylate] |
| 1.4 | O=C(O)COc1ccc(NC(=O)C2CC23CCN(C(=O)OC(C(F)(F)F)C(F)(F)F)CC3)cn1 (single isomer, unassigned) [Example 184, (R or S)-2-((5-(6-(((1,1,1,3,3,3-hexafluoropropan-2-yl)oxy)carbonyl)-6-azaspiro[2.5]octane-1-carboxamido)pyridin-2-yl)oxy)acetic acid] |
| 0.13 | CC(C)Oc1ccc(NC(=O)C2CC23CCN(C(=O)OC(C(F)(F)F)C(F)(F)F)CC3)cn1 (single isomer, unassigned) [Example 166, 1,1,1,3,3,3-hexafluoropropan-2-yl (R or S)-1-((6-isopropoxypyridin-3-yl)carbamoyl)-6-azaspiro[2.5]octane-6-carboxylate] |
| 0.056 | O=C(NC(=O)C1CC12CCN(C(=O)OC(C(F)(F)F)C(F)(F)F)CC2)C1CCOCC1 (single isomer, unassigned) [Example 27, 1,1,1,3,3,3-Hexafluoropropan-2-yl (R or S)-1-((tetrahydro-2H-pyran-4-carbonyl)carbamoyl)-6-azaspiro[2.5]octane-6-carboxylate] |
| 0.0022 | CNC(=O)c1ccc(NC(=O)C2CC23CCN(C(=O)OC(C(F)(F)F)C(F)(F)F)CC3)cn1 (single isomer, unassigned) [Example 33, 1,1,1,3,3,3-Hexafluoropropan-2-yl (R or S)-1-((6-(methylcarbamoyl)pyridin-3-yl)carbamoyl)-6-azaspiro[2.5]octane-6-carboxylate] |
| 0.23 | O=C(NCc1cccnn1)C1CC12CCN(C(=O)OC(C(F)(F)F)C(F)(F)F)CC2 (single isomer, unassigned) [Example 157] |
| 0.42 | O=C(OC(C(F)(F)F)C(F)(F)F)N1CCC2(CC1)CC2C(=O)N1CCOCC1 (single isomer, unassigned) [Example 121, 1,1,1,3,3,3-hexafluoropropan-2-yl (R or S)-1-(morpholine-4-carbonyl)-6-azaspiro[2.5]octane-6-carboxylate] |
| 0.0014 | CC(C)Oc1ccc(NC(=O)C2CC23CCN(C(=O)OC(C(F)(F)F)C(F)(F)F)CC3)cn1 (single isomer, unassigned) [Example 165, 1,1,1,3,3,3-hexafluoropropan-2-yl (R or S)-1-((6-isopropoxypyridin-3-yl)carbamoyl)-6-azaspiro[2.5]octane-6-carboxylate] |
| 0.013 | O=C(Nc1ccnnc1)C1CC12CCN(C(=O)OC(C(F)(F)F)C(F)(F)F)CC2 (single isomer, unassigned) [Example 108, 1,1,1,3,3,3-hexafluoropropan-2-yl (R or S)-1-(pyridazin-4-ylcarbamoyl)-6-azaspiro[2.5]octane-6-carboxylate] |
| 0.001 | Cc1ccc(NC(=O)[C@H]2CC23CCN(C(=O)OC(C(F)(F)F)C(F)(F)F)CC3)nn1 (single isomer, unassigned) [Example 106] |
| 0.091 | O=C(Nc1cccc(F)c1)C1CC12CCN(C(=O)OC(C(F)(F)F)C(F)(F)F)CC2 (single isomer, unassigned) [Example 148, 1,1,1,3,3,3-hexafluoropropan-2-yl (R or S)-1-((3-fluorophenyl)carbamoyl)-6-azaspiro[2.5]octane-6-carboxylate] |
| 0.0018 | O=C(Nc1cccc(F)c1)C1CC12CCN(C(=O)OC(C(F)(F)F)C(F)(F)F)CC2 (single isomer, unassigned) [Example 147, 1,1,1,3,3,3-hexafluoropropan-2-yl (R or S)-1-((3-fluorophenyl)carbamoyl)-6-azaspiro[2.5]octane-6-carboxylate] |
| 0.001 | O=C(Nc1ccc(C2CC2)nc1)[C@H]1CC12CCN(C(=O)OC(C(F)(F)F)C(F)(F)F)CC2 (single isomer, unassigned) [Example 163] |
| 0.00091 | O=C(Nc1ccccc1)[C@H]1CC12CCN(C(=O)OC(C(F)(F)F)C(F)(F)F)CC2 (single isomer, unassigned) [Example 141] |
| 0.67 | N#CC1CCN(C(=O)C2CC23CCN(C(=O)OC(C(F)(F)F)C(F)(F)F)CC3)CC1 (single isomer, unassigned) [Example 124, 1,1,1,3,3,3-hexafluoropropan-2-yl (R or S)-1-(4-cyanopiperidine-1-carbonyl)-6-azaspiro[2.5]octane-6-carboxylate] |

| Compound | IC50 [µM] |
| --- | --- |
| CC1(CNC(=O)C2CC23CCN(C(=O)OC(C(F)(F)F)C(F)(F)F)CC3)CCOCC1 (single isomer, unassigned) [Example 169, 1,1,1,3,3,3-hexafluoropropan-2-yl (R or S)-1-(((4-methyltetrahydro-2H-pyran-4-yl)methyl)carbamoyl)-6-azaspiro[2.5]octane-6-carboxylate] | 0.21 |
| CC1(NC(=O)C2CC23CCN(C(=O)OC(C(F)(F)F)C(F)(F)F)CC3)CCOCC1 (single isomer, unassigned) [Example 133, 1,1,1,3,3,3-hexafluoropropan-2-yl (R or S)-1-((4-methyltetrahydro-2H-pyran-4-yl)carbamoyl)-6-azaspiro[2.5]octane-6-carboxylate] | 1.6 |
| CP(C)(=O)c1ccc(NC(=O)C2CC23CCN(C(=O)OC(C(F)(F)F)C(F)(F)F)CC3)cn1 (single isomer, unassigned) [Example 21, 1,1,1,3,3,3-Hexafluoropropan-2-yl (R or S)-1-((6-(dimethylphosphoryl)pyridin-3-yl)carbamoyl)-6-azaspiro[2.5]octane-6-carboxylate] | 0.317 |
| O=C(Nc1nccs1)C1CC12CCN(C(=O)OC(C(F)(F)F)C(F)(F)F)CC2 (single isomer, unassigned) [Example 139, 1,1,1,3,3,3-hexafluoropropan-2-yl (R or S)-1-(thiazol-2-ylcarbamoyl)-6-azaspiro[2.5]octane-6-carboxylate] | 0.11 |
